Experimental findings from patent US20120231448A1, “LOW CELL TOXICITY […]” (priority 2011, published 2012) are described below.

Data set [1] deals with Tobacco Calli cells transformed with the Hygromycin B phosphotransferase gene. In words: LD 50 for resistant cells. Particulars: for LD 50 for different impurities for resistant cells: isolated impurities added to media.
For another data set, the system named is Tobacco Calli cells. The experiment in a line: LD 50 hygromycin B concentration for sensitive cells. The format is cell-based.
For a further data set, the system named is Fungi cell. The data set is described as above. The format is cell-based.
In data set [2] the test system is 293 cells transformed with the Hygromycin B phosphotransferase gene. In words: LD 50 for resistant cells. Particulars: resistant 293 cells; for LD 50 for different impurities for resistant cells: isolated impurities added to media.
In another data set the test system is Escherichia Coli. The experiment in a line: LD 50 hygromycin B concentration for sensitive cells. The format is cell-based.
The next data set deals with 293 cell. The data set is described as above. The settings on record: sensitive 293 cell. The format is cell-based.
In the next data set the test system is resistant cells. Particulars: comparison between batches / impurities.

On to `CN[C@H]1C[C@@H](N)[C@H](O)[C@@H](O[C@@H]2O[C@H](CO)[C@H](O)[C@@H]3OC4(O[C@H]23)O[C@H]([C@@H](N)CO)[C@H](O)[C@H](O)[C@H]4O)[C@@H]1O` (some centres unmarked) [Batch T-94, hygromycin B], for which the “LD 50 hygromycin B concentration for resistant cells” value was 490 µg/mL in data set [1] (hygromycin B batches) and 394 µg/mL in data set [2] (hygromycin B batches). Moreover, the “LD 50 hygromycin B concentration for sensitive cells” value in the data set on Tobacco Calli cells came out at 4.7 µg/mL; in the data set with Fungi cell, 14.2 µg/mL; in the data set on Escherichia Coli, 8.2 µg/mL; in the data set on 293 cell it was 8.5 µg/mL. Besides, in the data set on resistant cells, the “toxicity to resistant cells (in words)” value is given as “lower toxicity to resistant cells”.
In the case of Destomic acid [Impurity A], the “LD 50 for different impurities for resistant cells” value in data set [1] was determined as 193 µg/mL; in data set [2] it was 240 µg/mL.
Regarding `NC1CC(N)C(O)C(OCC(O)C(O)C(O)C(O)CO)C1O` (centres unmarked) [Impurity D], the entries for the “LD 50 for different impurities for resistant cells” value in data set [1] and in data set [2] were 0.5 µg/mL and 1.7 µg/mL, respectively.
